The subject of the assay is Sphaerotheca fuliginea. Description: Sphaerotheca test (cucumber)/preventive. The assay is classed as in vivo. Conditions: preventive. An excerpt: One day after this treatment, the plants are inoculated with an aqueous spore suspension of Sphaerotheca fuliginea.

Molecules are shown by their SMILES.

Turning to `Cc1ccccc1-c1ccccc1NC(=O)c1c(C(F)F)nn(C)c1F` [102 from WO-2007/006806, 3-(difluoromethyl)-5-fluoro-1-methyl-N-(2′-methylbiphenyl-2-yl)-1H-pyrazole-4-carboxamide], the efficacy by setting is: (Table A, dose 500 ppm) 20%; (500 ppm of active ingredient, evaluated 7 days after inoculation) “less than 20%”.

(Values after patent US9206137B2, “N-Aryl pyrazole(thio)carboxamides” (BAYER INTELLECTUAL PROPERTY GMBH, priority 2010, dated 2015).)
